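How tested: cells in 96-well plates exposed to compound for 48 hours at five concentrations. GI50: concentration for 50% inhibition of growth. TGI: total growth inhibition.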
Tests used:
Test in all cases: NCI tumour cell line growth inhibition, 48 h
[1] = test system: PC-3 prostate
[2] = test system: 786-0 renal
[3] = test system: CCRF-CEM leukemia
[4] = test system: NCI-H226 lung
[5] = test system: K-562 leukemia
[6] = test system: NCI-H460 lung
[7] = test system: MDA-MB-231 breast
[8] = test system: CAKI-1 renal
[9] = test system: DU-145 prostate
[10] = test system: HOP-62 NSCLC
[11] = test system: LOX IMVI melanoma
[12] = test system: SK-OV-3 ovarian
[13] = test system: KM12 colon
[14] = test system: HCT-116 colon
[15] = test system: A498 renal
[16] = test system: MDA-MB-468 breast
[17] = test system: SF-268 CNS
[18] = test system: RXF 393 renal
[19] = test system: NCI-H23 lung
[20] = test system: SF-295 CNS
[21] = test system: SK-MEL-2 melanoma
[22] = test system: SK-MEL-28 melanoma
[23] = test system: UACC-62 melanoma
[24] = test system: EKVX NSCLC
[25] = test system: BT-549 breast
[26] = test system: T-47D breast
[27] = test system: HCT-15 colon
[28] = test system: U251 CNS
[29] = test system: SW-620 colon
[30] = test system: NCI-H522 lung
[31] = test system: MCF7 breast
[32] = test system: NCI/ADR-RES ovarian
[33] = test system: OVCAR-8 ovarian
[34] = test system: MOLT-4 leukemia
[35] = test system: SK-MEL-5 melanoma
[36] = test system: SN12C renal
[37] = test system: OVCAR-3 ovarian
[38] = test system: TK-10 renal
[39] = test system: M14 melanoma
[40] = test system: HT29 colon
[41] = test system: MDA-MB-435
[42] = test system: HOP-92 NSCLC
[43] = test system: OVCAR-4 ovarian
[44] = test system: HL-60(TB) leukemia
[45] = test system: MALME-3M melanoma
[46] = test system: OVCAR-5 ovarian
[47] = test system: HS 578T breast
[48] = test system: UACC-257 melanoma
[49] = test system: HCC-2998 colon
[50] = test system: SR leukemia
[51] = test system: UO-31 renal
[52] = test system: SNB-19 CNS
[53] = test system: RPMI-8226 leukemia
[54] = test system: ACHN renal
[55] = test system: IGROV1 ovarian
[56] = test system: SF-539 CNS
[57] = test system: COLO 205 colon
[58] = test system: A549 NSCLC

## COc1ccc(C(=O)/C=C/c2ccccc2Br)cc1S(N)(=O)=O
[1]
  GI50: 4.28 µM
  TGI: 16.9 µM
[2]
  GI50: 1.81 µM
  TGI: 3.66 µM
[3]
  GI50: 3.07 µM
  TGI: 11.1 µM
[4]
  GI50: 2.47 µM
  TGI: 6.96 µM
[5]
  GI50: 1.85 µM
  TGI: 5.09 µM
[6]
  GI50: 1.94 µM
  TGI: 4.58 µM
[7]
  GI50: 2.09 µM
  TGI: 4.69 µM
[8]
  GI50: 4.24 µM
  TGI: 16.2 µM
[9]
  GI50: 3.35 µM
  TGI: 11.4 µM
[10]
  GI50: 2.41 µM
  TGI: 7.39 µM
[11]
  GI50: 1.65 µM
  TGI: 3.02 µM
[12]
  GI50: 12.9 µM
  TGI: 26 µM
[13]
  GI50: 1.87 µM
  TGI: 4.01 µM
[14]
  GI50: 1.52 µM
  TGI: 3.02 µM
[15]
  GI50: 11.4 µM
  TGI: 24.1 µM
[16]
  GI50: 2.56 µM
  TGI: 13.2 µM
[17]
  GI50: 3.66 µM
  TGI: 14.6 µM
[18]
  GI50: 1.91 µM
  TGI: 4.38 µM
[19]
  GI50: 3.22 µM
  TGI: 12.7 µM
[20]
  GI50: 4.13 µM
  TGI: 16.1 µM
[21]
  GI50: 14.4 µM
  TGI: 28.1 µM
[22]
  GI50: 8.3 µM
  TGI: 20.5 µM
[23]
  GI50: 3.64 µM
  TGI: 15.3 µM
[24]
  GI50: 9.86 µM
  TGI: 21.8 µM
[25]
  GI50: 4.56 µM
  TGI: 16.8 µM
[26]
  GI50: 3.57 µM
  TGI: 15.8 µM
[27]
  GI50: 1.65 µM
  TGI: 3.45 µM
[28]
  GI50: 1.49 µM
  TGI: 2.82 µM
[29]
  GI50: 1.79 µM
  TGI: 4.04 µM
[30]
  GI50: 1.77 µM
  TGI: 4.12 µM
[31]
  GI50: 2.89 µM
  TGI: 11.3 µM
[32]
  GI50: 2.28 µM
  TGI: 5.67 µM
[33]
  GI50: 2.62 µM
  TGI: 8.33 µM
[34]
  GI50: 1.93 µM
  TGI: 5 µM
[35]
  GI50: 7.78 µM
  TGI: 20.5 µM
[36]
  GI50: 1.86 µM
  TGI: 4.15 µM
[37]
  GI50: 2.09 µM
  TGI: 4.73 µM
[38]
  GI50: 3.29 µM
  TGI: 11.9 µM
[39]
  GI50: 6.83 µM
  TGI: 21.3 µM
[40]
  GI50: 2.27 µM
  TGI: 4.9 µM
[41]
  GI50: 7.18 µM
  TGI: 20.1 µM
[42]
  GI50: 3.29 µM
  TGI: 16 µM
[43]
  GI50: 3.25 µM
  TGI: 13.1 µM
[44]
  GI50: 2.64 µM
  TGI: 17.2 µM
[45]
  GI50: 10.8 µM
  TGI: 22.7 µM
[46]
  GI50: 2.2 µM
  TGI: 5.99 µM
[47]
  GI50: 8.91 µM
  TGI: 72 µM
[48]
  GI50: 11.9 µM
  TGI: 24.5 µM
[49]
  GI50: 2.9 µM
  TGI: 12.4 µM
[50]
  GI50: 1.48 µM
  TGI: 4.43 µM
[51]
  GI50: 1.53 µM
  TGI: 3.05 µM
[52]
  GI50: 4.26 µM
  TGI: 16 µM
[53]
  GI50: 2.3 µM
  TGI: 6.84 µM
[54]
  GI50: 1.84 µM
  TGI: 3.56 µM
[55]
  GI50: 2.76 µM
  TGI: 10 µM
[56]
  GI50: 1.74 µM
  TGI: 3.21 µM
[57]
  GI50: 2.21 µM
  TGI: 4.49 µM
[58]
  GI50: 2.67 µM
  TGI: 8.9 µM
